Results as given in publication PMC7699745, “The Search for New Anticonvulsants in a Group of (2,5-Dioxopyrrolidin-1-yl)(phenyl)Acetamides with Hybrid Structure—Synthesis and In Vivo/In Vitro Studies” (International Journal of Molecular Sciences, 2020).
Where two headings read alike, the source gives them in different places.

What was measured:
Cav2.2 channel = target: T1, Cav2.2 channel (Rattus norvegicus, UniProt Q02294); experiment: Radioligand binding, Cav2.2 channel; set-up: dose or concentration left out as unconfirmed; details: rat cerebral cortex; read-out: % Inhibition of Control Specific Binding, Cav2.2 Channel (Antagonist Radioligand)
T1 construct: tissue Eurofins (Poitiers, France), contract assay; host or cells: rat cerebral cortex (own knowledge of the vendor's assay)
Protocol: (§1) Taking into consideration the structural similarities of molecules described in the current manuscript with their chemical prototypes AS-1 and DK-1, the binding studies toward aforementioned molecular targets were performed commercially for several active substances from each subseries (3, 4, 21, 24, 25, 27, 29, and 30). Furthermore, we also tested two other and well-known targets for AEDs, namely, the Cav2.2 (N-type) calcium channel and gamma-aminobutyric acid (GABA)-A receptor. With the aim of excluding potentially dangerous proarrhythmic properties for each compound, their interaction with the potassium (hERG) channel was also tested.
(§2) Binding studies were carried out commercially in Eurofines Laboratories (Poitiers, France). The functional assays were performed in Eurofins Panlabs Discovery Services Taiwan, Ltd. (New Taipei City, Taiwan). All procedures are described elsewhere (for details, see Table S4 in Supplementary Materials).
(§3) Binding studies were carried out commercially in Eurofines Laboratories (Poitiers, France). The
(§4) functional assays were performed in Eurofins Panlabs Discovery Services Taiwan, Ltd. (New Taipei
(§5) City, Taiwan). All procedures are described elsewhere (Table S4).
(§6) Table S4. In vitro binding and functional assays.
(§7) GABA-A receptor (α1,β2,γ2)
(§8) Potassium channel (hERG) 14
(§9) Cav1.2 (h) calcium ion channel cell based antagonist calcium flux assay 16,17

[1] = target: T2, GABA-A receptor (α1,β2,γ2) (Homo sapiens, UniProt P14867+P47870); experiment: Radioligand binding, GABA-A receptor; set-up: dose or concentration left out as unconfirmed; details: rat cerebral cortex; read-out: % Inhibition of Control Specific Binding, GABA-A Receptor (α1,β2,γ2) (Agonist Radioligand)
T2 construct: Eurofins (Poitiers, France), contract assay
T2 sequence (P14867 28-456): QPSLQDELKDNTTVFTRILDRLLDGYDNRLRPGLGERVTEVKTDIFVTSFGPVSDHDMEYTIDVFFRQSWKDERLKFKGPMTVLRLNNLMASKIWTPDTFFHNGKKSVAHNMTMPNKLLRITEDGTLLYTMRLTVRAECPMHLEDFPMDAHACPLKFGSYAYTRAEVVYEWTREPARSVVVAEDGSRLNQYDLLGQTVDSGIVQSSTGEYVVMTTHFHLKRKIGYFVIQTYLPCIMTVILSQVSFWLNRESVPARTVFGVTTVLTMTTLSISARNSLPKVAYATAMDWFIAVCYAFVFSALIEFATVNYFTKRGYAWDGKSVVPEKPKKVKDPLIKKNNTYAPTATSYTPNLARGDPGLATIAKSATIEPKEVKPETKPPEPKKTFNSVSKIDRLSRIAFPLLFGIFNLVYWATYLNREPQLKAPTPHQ
T2 sequence (P47870 25-512 limits assumed): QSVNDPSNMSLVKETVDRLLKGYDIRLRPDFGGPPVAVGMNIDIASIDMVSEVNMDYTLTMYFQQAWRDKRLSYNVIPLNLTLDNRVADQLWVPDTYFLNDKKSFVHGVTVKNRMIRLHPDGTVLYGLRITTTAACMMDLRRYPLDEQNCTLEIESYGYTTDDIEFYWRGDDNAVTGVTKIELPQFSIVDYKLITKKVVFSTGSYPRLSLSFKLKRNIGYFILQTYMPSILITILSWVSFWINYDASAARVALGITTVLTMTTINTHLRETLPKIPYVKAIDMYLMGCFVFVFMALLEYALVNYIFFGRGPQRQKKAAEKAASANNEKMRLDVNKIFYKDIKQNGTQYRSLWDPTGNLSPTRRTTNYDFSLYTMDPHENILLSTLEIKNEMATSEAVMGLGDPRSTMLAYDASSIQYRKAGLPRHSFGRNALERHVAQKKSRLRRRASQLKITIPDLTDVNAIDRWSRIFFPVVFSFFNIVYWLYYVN
T2 sequence (P18507 40-475 partner): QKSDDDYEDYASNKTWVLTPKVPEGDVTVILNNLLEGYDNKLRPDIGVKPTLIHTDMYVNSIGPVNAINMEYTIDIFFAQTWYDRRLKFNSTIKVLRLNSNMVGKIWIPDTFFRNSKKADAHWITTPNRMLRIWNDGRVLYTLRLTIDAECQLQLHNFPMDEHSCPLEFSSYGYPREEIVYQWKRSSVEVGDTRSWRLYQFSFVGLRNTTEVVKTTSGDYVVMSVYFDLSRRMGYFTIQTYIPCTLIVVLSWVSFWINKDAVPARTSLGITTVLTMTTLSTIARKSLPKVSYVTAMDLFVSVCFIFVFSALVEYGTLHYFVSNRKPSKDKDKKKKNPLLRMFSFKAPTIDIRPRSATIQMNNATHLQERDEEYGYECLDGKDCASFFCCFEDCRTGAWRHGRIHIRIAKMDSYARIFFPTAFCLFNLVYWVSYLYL
Protocol: as §1, §2, §3, §4, §5, §6, §7, §8, §9

[2] = system: 6 Hz (32 mA) seizures, mice; experiment: Psychomotor 6 Hz (32 mA) seizure model; assay type: in vivo; details: for responders at 100 mg/kg / ED50: Mus musculus, ip; for responders at 100 mg/kg: 0.5 h, read-out: 6 Hz (32 mA) test, number of mice protected / number of mice tested (converted); for ED50: at TPE (0.5 h; LTG 1.0 h), 95% confidence intervals in parentheses
Potassium channel (hERG) = target: T3, Potassium channel (hERG) (Homo sapiens, UniProt Q12809); experiment: Binding, potassium channel (hERG); details: 100 µM; human recombinant (HEK-293 cells)
T3 construct: Eurofins (Poitiers, France), contract assay
T3 sequence (Q12809 whole entry): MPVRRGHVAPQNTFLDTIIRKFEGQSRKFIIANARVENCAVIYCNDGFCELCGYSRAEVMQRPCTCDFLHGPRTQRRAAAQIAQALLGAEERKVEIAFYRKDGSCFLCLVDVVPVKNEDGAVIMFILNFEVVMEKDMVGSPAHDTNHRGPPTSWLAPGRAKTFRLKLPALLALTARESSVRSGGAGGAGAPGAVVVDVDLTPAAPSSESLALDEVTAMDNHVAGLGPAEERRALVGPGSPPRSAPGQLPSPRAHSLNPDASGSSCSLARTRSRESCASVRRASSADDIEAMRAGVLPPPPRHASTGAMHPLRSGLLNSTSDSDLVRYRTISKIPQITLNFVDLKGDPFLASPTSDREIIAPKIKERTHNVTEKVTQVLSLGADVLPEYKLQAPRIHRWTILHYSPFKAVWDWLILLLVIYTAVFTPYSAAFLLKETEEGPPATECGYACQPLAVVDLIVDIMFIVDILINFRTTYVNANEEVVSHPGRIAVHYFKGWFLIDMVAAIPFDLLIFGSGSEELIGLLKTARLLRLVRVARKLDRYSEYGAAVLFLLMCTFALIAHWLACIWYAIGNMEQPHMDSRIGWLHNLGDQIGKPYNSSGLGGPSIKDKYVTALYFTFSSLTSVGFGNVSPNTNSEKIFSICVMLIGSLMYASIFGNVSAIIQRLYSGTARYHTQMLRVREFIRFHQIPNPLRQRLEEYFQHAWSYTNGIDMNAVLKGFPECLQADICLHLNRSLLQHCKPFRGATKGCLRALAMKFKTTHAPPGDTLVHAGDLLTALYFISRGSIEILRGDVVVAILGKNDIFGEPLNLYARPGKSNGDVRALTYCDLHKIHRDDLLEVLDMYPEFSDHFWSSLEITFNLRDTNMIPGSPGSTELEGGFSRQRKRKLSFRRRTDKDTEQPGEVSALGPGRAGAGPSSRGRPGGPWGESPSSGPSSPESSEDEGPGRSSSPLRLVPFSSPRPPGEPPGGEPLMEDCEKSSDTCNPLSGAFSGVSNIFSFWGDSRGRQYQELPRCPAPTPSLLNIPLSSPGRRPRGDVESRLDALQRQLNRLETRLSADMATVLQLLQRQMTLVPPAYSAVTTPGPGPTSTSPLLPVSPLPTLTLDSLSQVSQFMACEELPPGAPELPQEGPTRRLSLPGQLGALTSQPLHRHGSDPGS
Protocol: as §1, §2, §3, §4, §5, §6, §7, §8, §9

[3] = Rotarod test for acute neurological toxicity; details: mouse, in vivo, ip
[4] = system: motor coordination of mice; experiment: Rotarod test for acute neurological toxicity; details: for impairment of motor coordination of mice: doses as high as 300 mg/kg; for Rotarod test, number of mice / number of mice tested: i.p., 100 mg/kg, 0.5 h
Cav1.2 channel = target: T4, Cav1.2 channel (Rattus norvegicus, UniProt P22002); experiment: Radioligand binding, Cav1.2 channel; set-up: inhibition: dose or concentration left out as unconfirmed; details: for inhibition: rat cerebral cortex, read-out: % Inhibition of Control Specific Binding, Cav1.2 Channel (Antagonist Radioligand); for binding to voltage-gated calcium channels Cav1.2: concentration of 10 µM
T4 construct: tissue Eurofins (Poitiers, France), contract assay; host or cells: rat cerebral cortex (own knowledge of the vendor's assay)
Protocol: as §1, §2, §3, §4, §5, §6, §7, §8, §9

Na+ channel (site 2) = experiment: Radioligand binding, Na+ channel (site 2); details: 10 µM; rat cerebral cortex
Protocol: as §1, §2, §3, §4, §5
(§10) Table S4. In vitro binding and functional assays. […]

MES seizures, mice = experiment: Maximal electroshock (MES) seizure test; assay type: in vivo; details: Mus musculus, ip; for responders at 100 mg/kg: 0.5 h, i.p.; for ED50: at TPE (0.5 h; LTG 1.0 h), 95% confidence intervals in parentheses
[5] = target: T5, Cav1.2 (h) calcium ion channel (Homo sapiens, UniProt Q13936); experiment: Cav1.2 (h) cell-based antagonist calcium flux assay; details: for inhibition at 10 µM: HEK293, human recombinant (HEK-293 cells), read-out: % Inhibition of Control Agonist Response, Cav1.2 (h) calcium flux; for antagonist properties in cell-based flux studies (Cav1.2): 10 µM
T5 construct: host or cells: HEK-293
Protocol: as §2, §3, §4, §5, §10, §9

[6] = Metabolic stability in human liver microsomes; assay type: in vitro ADME; details: 120 min incubation with HLMs
Excerpt: Human liver microsomes (HLMs) were used for metabolic stability determination. Moreover, the most probable phase I reactions and structures of metabolites were proposed according to ion fragment analyses with the in silico support of MetaSite 6.0.1 software. […] On the other hand, an excellent metabolic stability of compound 24 was observed. Less than 4% of this derivative was converted into double-hydroxylated metabolite M1 (Figures S3, S4, and S7, Supplementary Materials). Finally, two monohydroxylated metabolites (M1, M2) were found in the reaction mixture with HLMs and 30, and around 17% of this compound was metabolized (Figures S5–S7, Supplementary Materials).
These assays were performed on human liver microsomes (HLMs), purchased from Sigma-Aldrich (St. Louis, MO, USA), according to [14].

CYP3A4 = target: T6, CYP3A4 (Homo sapiens, UniProt P08684); experiment: Luminescent CYP3A4 P450-Glo assay; assay type: in vitro ADME; details: 1 µM
T6 construct: purchased Promega (Madison, WI, USA)
T6 sequence (P08684 whole entry): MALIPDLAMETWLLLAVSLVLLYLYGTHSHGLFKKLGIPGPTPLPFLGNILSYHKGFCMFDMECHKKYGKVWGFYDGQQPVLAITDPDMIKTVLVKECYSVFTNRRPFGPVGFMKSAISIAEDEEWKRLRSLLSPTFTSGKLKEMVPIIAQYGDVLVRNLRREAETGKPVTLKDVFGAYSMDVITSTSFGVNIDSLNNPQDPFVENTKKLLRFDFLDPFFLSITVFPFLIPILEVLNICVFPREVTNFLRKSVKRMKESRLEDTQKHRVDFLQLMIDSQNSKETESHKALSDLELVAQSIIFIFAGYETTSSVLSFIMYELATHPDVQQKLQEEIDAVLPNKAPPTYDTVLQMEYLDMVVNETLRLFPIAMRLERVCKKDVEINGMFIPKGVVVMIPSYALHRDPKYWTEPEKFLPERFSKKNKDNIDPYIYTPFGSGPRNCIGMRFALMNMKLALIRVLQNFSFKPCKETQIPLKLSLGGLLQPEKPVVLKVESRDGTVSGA

CYP2C9 = CYP2C9 (Homo sapiens, UniProt P11712); experiment: Luminescent CYP2C9 P450-Glo assay
CYP2C9, sequence (P11712 whole entry): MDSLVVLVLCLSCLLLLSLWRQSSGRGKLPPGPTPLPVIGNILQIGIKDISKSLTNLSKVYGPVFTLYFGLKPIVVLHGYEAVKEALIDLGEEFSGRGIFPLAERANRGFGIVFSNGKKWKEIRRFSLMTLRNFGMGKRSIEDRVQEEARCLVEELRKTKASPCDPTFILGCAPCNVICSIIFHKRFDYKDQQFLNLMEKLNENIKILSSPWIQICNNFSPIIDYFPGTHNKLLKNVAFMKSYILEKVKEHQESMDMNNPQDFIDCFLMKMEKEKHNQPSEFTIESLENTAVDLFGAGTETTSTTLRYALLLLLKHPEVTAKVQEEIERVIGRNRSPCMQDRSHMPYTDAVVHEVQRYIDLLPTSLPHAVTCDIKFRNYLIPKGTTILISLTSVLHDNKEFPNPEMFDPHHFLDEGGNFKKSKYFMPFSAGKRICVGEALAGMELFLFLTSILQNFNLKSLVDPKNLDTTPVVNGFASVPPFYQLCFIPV

[7] = Parallel artificial membrane permeability assay (PAMPA)
Protocol: Passive diffusion was tested in the parallel artificial membrane permeability assay (PAMPA) and expressed as the permeability coefficient (Pe). A highly permeable compound, caffeine (CFN), and a poorly permeable compound, norfloxacin (NFX), were used as the references.
Precoated PAMPA Plate System Gentest™ was provided by Corning, (Tewksbury, MA, USA).

PTZ seizures, mice = details: known AED, background statement; cited from earlier work
[8] = system: 6 Hz (32 mA) seizures, mice; details: known AED, background statement; cited from earlier work
[9] = groups of four, read-out: protection in the MES test
[10] = read-out: MES test, number of mice protected / number of mice tested (converted)

Structure (SMILES) | inhibition (Cav2.2 channel) | inhibition [1] | responders at 100 mg/kg [2] | ED50 [2] | % Inhibition of Control Specific Binding, Potassium Channel (hERG) (Potassium channel (hERG)) | TD50 at 0.5 h [3] | impairment of motor coordination of mice [4] | Rotarod test, number of mice / number of mice tested [4] | inhibition (Cav1.2 channel) | % Inhibition of Control Specific Binding, Na+ Channel (Site 2) (Antagonist Radioligand) (Na+ channel (site 2)) | responders at 100 mg/kg (MES seizures, mice; [9]) | responders at 100 mg/kg (MES seizures, mice; [10]) | ED50 (MES seizures, mice) | melting point | inhibition at 10 µM [5] | antagonist properties in cell-based flux studies (Cav1.2) [5] | binding to voltage-gated calcium channels Cav1.2 (Cav1.2 channel) | also measured
O=C(Nc1ccccc1)C(c1ccccc1)N1C(=O)CCC1=O (stereo not drawn) [Compound 3, 2-(2,5-Dioxopyrrolidin-1-yl)-N,2-diphenylacetamide] | 3.6% | 5.2% | 75% | 92.5 mg/kg | 0.8% | > 300 mg/kg | did not impair motor coordination | 0/4 | 9% | 10.8% | ≥ 50% | 50% | > 130 mg/kg |  |  |  |  | 
O=C(NCc1ccccc1C(F)(F)F)C(c1ccccc1)N1C(=O)CCC1=O (stereo not drawn) [Compound 21, 2-(2,5-Dioxopyrrolidin-1-yl)-2-phenyl-N-(2-(trifluoromethyl)benzyl)acetamide] | 0.2% | 1.2% | 25% |  | 6.3% | > 300 mg/kg | did not impair motor coordination | 0/4 | 26.6% | 18.8% | ≥ 50% | 50% | 49.6 mg/kg | 137.7 to 139.1 °C | 27% |  |  | effectiveness in the 6 Hz test ([2]; i.p.): not effective
O=C(NCc1cccc(OC(F)(F)F)c1)C(c1ccccc1)N1C(=O)CCC1=O (stereo not drawn) [Compound 24, 2-(2,5-Dioxopyrrolidin-1-yl)-2-phenyl-N-(3-(trifluoromethoxy)benzyl)acetamide] | 5.5% | -0.8% | 100% | 43.8 mg/kg | 4.4% | > 300 mg/kg | did not impair motor coordination | 0/4 | 36.5% | 22.3% | ≥ 50% | 75% | > 130 mg/kg | 129.6 to 130.4 °C | 38.8% | moderate antagonist properties | moderate binding | compound converted into metabolites / metabolized [6]: Less than 4%; parent compound remained in the reaction mixture [6]: 96.49%; effect on CYP3A4 activity (CYP3A4): slightly inhibited CYP3A4 activity; CYP2C9 activity, % of control (CYP2C9; 10 and 25 µM): up to 140 % of control; Papp [7]: 10.9 ± 0.5 ×10⁻⁶ cm/s
O=C(NCCc1ccccc1)C(c1ccccc1)N1C(=O)CCC1=O (stereo not drawn) [Compound 25, 2-(2,5-Dioxopyrrolidin-1-yl)-N-phenethyl-2-phenylacetamide] | 2.5% | 3.6% | 75% | 88.9 mg/kg | 4.8% | 210 mg/kg |  | 1/4 | 19% | 14.8% | ≥ 50% | 75% | 87.9 mg/kg |  |  |  |  | acute neurological toxicity (rotarod) ([4]; at doses around or below 200 mg/kg): moderate acute neurological toxicity
O=C(NCCc1cccc(Cl)c1)C(c1ccccc1)N1C(=O)CCC1=O (stereo not drawn) [Compound 27, N-(3-Chlorophenethyl)-2-(2,5-dioxopyrrolidin-1-yl)-2-phenylacetamide] | 3.8% | 0.7% | 75% | 36.3 mg/kg | 2.7% | > 300 mg/kg |  | 0/4 | 38.3% | 20.1% |  | 50% |  | 137.4 to 138.2 °C | 40% | moderate antagonist properties | moderate binding | 
O=C(NCCc1cccc(C(F)(F)F)c1)C(c1ccccc1)N1C(=O)CCC1=O (stereo not drawn) [Compound 29, 2-(2,5-Dioxopyrrolidin-1-yl)-2-phenyl-N-(3-(trifluoromethyl)phenethyl)acetamide] | -0.6% | 2.1% | 75% | 49.3 mg/kg | 3.4% | 179 mg/kg |  | 0/4 | 44.2% | 18.3% | 100% | 75% | 55.4 mg/kg | 149.2 to 150.4 °C | 45% | moderate antagonist properties | moderate binding | 
CCC1(C)CC(=O)NC1=O (stereo not drawn) [ETX, ethosuximide] |  |  |  |  |  |  |  |  |  |  |  |  |  |  |  |  |  | activity in the (sc)PTZ model (PTZ seizures, mice): protected mice only in the scPTZ model
CC[C@@H](C(N)=O)N1CCCC1=O [LEV, levetiracetam] |  |  |  |  |  |  |  |  |  |  |  |  |  |  |  |  |  | activity in the 6 Hz (32 mA) model [8]: showed efficacy only in the 6 Hz seizure model
Nc1ccc(S(=O)(=O)Nc2ccnn2-c2ccccc2)cc1 [SE, sulfaphenazole, reference compound] |  |  |  |  |  |  |  |  |  |  |  |  |  |  |  |  |  | effect on CYP2C9 activity (CYP2C9; 1 µM): almost completely blocked CYP2C9 activity
